Data from patent US11547706B2, “Methods and compositions for reducing tactile dysfunction and anxiety associated with autism spectrum disorder, Rett syndrome, and Fragile X syndrome” (President and Fellows of Harvard College, priority 2016, dated 2023).
“Also recorded” adds a separate entry of the source.

Tests used:
[1] = tested on: Advillin^Cre; Mecp2^f/y mutant mice; test: Response to air puff stimulus alone after drug injection; assay type: in vivo, mouse; details: Midazolam 2.5 mg/kg or isoguvacine 1 mg/kg injection
Experimental: (§1) FIG. 15A is a graph showing the startle response of Advillin^Cre; Mecp2^f/y mutant mice and control littermates following injection of: vehicle (saline), Bumetanide (0.2 mg/kg), Midazolam (2.5 mg/kg) or isoguvacine (1 mg/kg). […] FIG. 15B is a graph showing the response to tactile PPI of Advillin^Cre; Mecp2^f/y mutant mice and control littermates following injection of: vehicle (saline), Bumetanide (0.2 mg/kg), Midazolam (2.5 mg/kg) or isoguvacine (1 mg/kg). […] FIG. 15C is a graph showing the response to air puff alone of Advillin^Cre; Mecp2^f/y mutant mice and control littermates following injection of: vehicle (saline), Bumetanide (0.2 mg/kg), Midazolam (2.5 mg/kg) or isoguvacine (1 mg/kg).
The response of mice to tactile and acoustic startle stimuli, and the ability of a tactile or acoustic stimulus to inhibit startle to a loud acoustic stimulus was measured using a San Diego Instruments startle reflex system (SR-LAB™ Startle Response System). […] Air puffs were administered to the back of the mouse to assess hairy skin sensitivity. […] In addition, this prepulse intensity was chosen because it produced significant inhibition of startle reflex at multiple (ISIs). […]

[2] = tested on: Advillin^Cre; Mecp2^f/y mutant mice and control littermates; test: Magnitude of startle response to a 125 dB noise after drug injection; assay type: in vivo, mouse; details: Midazolam 2.5 mg/kg injection, compared to animals treated with vehicle
Experimental: as §1
(§2) The response of mice to tactile and acoustic startle stimuli, and the ability of a tactile or acoustic stimulus to inhibit startle to a loud acoustic stimulus was measured using a San Diego Instruments startle reflex system (SR-LAB™ Startle Response System). […] Air puffs were administered to the back of the mouse to assess hairy skin sensitivity. […]
(§3) For acoustic PPI, the prepulse was 20 ms in duration and presented 100 ms before the startle pulse (inter-stimulus interval, ISI). […] Whole body flinch, or startle reflex, was quantitated using an accelerometer sensor measuring the amplitude of movement of the animal, within the cylindrical holder.

[3] = tested on: Advillin^Cre; Mecp2^f/y mutant mice; test: Tactile PPI assay after drug injection; assay type: in vivo, mouse; details: Midazolam 2.5 mg/kg or isoguvacine 1 mg/kg injection
Experimental: as §1, §2, §3

[4] = tested on: mice including Advillin^Cre; Mecp2^floxed mutant mice; test: Open field test after isoguvacine; assay type: in vivo, mouse; details: 1 mg/kg, i.p.
Experimental: (§4) Values are expressed as percent of control littermates' performance. Experiments were performed in mutant mice (Advillin^Cre; Mecp2^f/y, Shank3B^+/− or Fmr1^−/y) and control littermates, 30 minutes after an intraperitoneal (i.p.) of either saline (vehicle) or Isoguvacine (1 mg/kg). Two-way ANOVA, with post-hoc Holm-Sidak's test, *, p<0.05, when comparing mutants to control within same treatment; #, p<0.05, when comparing the same genotype across different treatments. FIG. 56B is a graph of response to a light air puff stimulus alone (0.9 PSI, 50 ms). Responses are expressed as a percent of startle response to a 125-B noise. Experiments were performed in mutant mice (Advillin^Cre; Mecp2^f/y, Shank3B^+/− or Fmr1^−/y) and control littermates, 30 minutes after an intraperitoneal (i.p.) of either saline (vehicle) or isoguvacine (1 mg/kg). Two-way ANOVA, with post-hoc Holm-Sidak's test, *, p<0.05, and t, p<0.10, when comparing mutants to control within same treatment; #, p<0.05, when comparing the same genotype across different treatments. FIG. 56C is a graph of magnitude of startle response to a 125-dB noise. […]
On the first day of behavioral testing, animals were subjected to the open field test. […] A portion of videos were blindly hand-scored to verify accuracy. Distance traveled and time spent away from walls (time in center) were analyzed per 10-minute video.

[5] = tested on: large diameter DRG neurons cultured from control mice; test: Whole cell patch clamp recordings of cultured large diameter DRG neurons; assay type: cell-based, mouse; details: 10 μM isoguvacine, 5 minutes after application
Text: Repeated measures one-way ANOVA, *, p<0.05. […] Student's paired t-test, p<0.05. […] Repeated measures one-way ANOVA, *, p<0.05. […] Student's paired t-test, p<0.05.
These exciting findings prompted us to ask whether peripherally restricted GABAA receptor agonists could also be used to ameliorate tactile hypersensitivity and other behavioral deficits in ASD models. We utilized a peripherally restricted GABAA receptor agonist, isoguvacine, to determine whether augmenting GABAA receptor signaling at DRG cell bodies could reduce excitability of primary somatosensory afferents.

[6] = tested on: Mecp2, Shank3 and Fmr1 mutant mice; test: Tactile PPI assay in multiple ASD mouse models; assay type: in vivo; details: 1 mg/kg, i.p., acute, 30 minutes before test
Experimental: as §4
(§5) The response of mice to tactile and acoustic startle stimuli, and the ability of a tactile or acoustic stimulus to inhibit startle to a loud acoustic stimulus was measured using a San Diego Instruments startle reflex system (SR-LAB™ Startle Response System). […]

[7] = tested on: large diameter DRG neurons cultured from Shank3B^+/- or Mecp2^STOP/y mice; test: Whole cell patch clamp recordings of cultured large diameter DRG neurons from mutant mice; assay type: cell-based, mouse; details: 10 μM isoguvacine; for resting membrane potential / rheobase, excitability: neurons from Shank3B^+/- or Mecp2^STOP/y mice
Text: Repeated measures two-way ANOVA with post-hoc Tukey's test: *, p<0.05. […] Repeated measures two-way ANOVA with post-hoc Tukey's test: *, p<0.05. […] Repeated measures two-way ANOVA with post-hoc Tukey's test: *, p<0.05. […] Repeated measures two-way ANOVA with post-hoc Tukey's test: *, p<0.05.
We next determined whether isoguvacine could improve electrophysiological deficits observed in large diameter peripheral somatosensory neurons cultured from Shank3 and Mecp2 mutant mice.

control mice = test: Tactile PPI with back hairy skin pretreated with lidocaine; assay type: in vivo, mouse
Experimental: FIG. 1A is an image showing a smooth textured object (left) and a rough textured object (right) used in the textured NORT. FIG. 1B is a schematic outlining the protocol for the three NORT assays. FIG. 1C is a graph showing the discrimination indices for textured NORT. A positive value indicates preference for the novel object, compared to the familiar object. *, p<0.05. FIG. 1D is a graph showing the discrimination indices for 5 minute control NORT. A positive value indicates preference for the novel object, compared to the familiar object. *, p<0.05. FIG. 1E is a graph showing the discrimination indices for 1 hour control NORT. A positive value indicates preference for the novel object, compared to the familiar object. *, p<0.05. FIG. 1F is a schematic showing the tactile PPI assay. […] Responses are expressed as percent of startle response to a 125 dB noise. *, p<0.01. […] Responses are expressed as percent of startle response to a 125 dB noise. *, p<0.05. […]
as §5

Compound | response to an air puff stimulus alone [1] | startle amplitude [2] | responses in the tactile PPI assay [3] | time spent in the center of a chamber during the open field test [4] | minimal current required to produce an action potential (rheobase), excitability [5] | resting membrane potential [5] | tactile hypersensitivity, as measured by the tactile PPI assay [6] | rheobase compared with neurons cultured from control littermates ([7]; neurons from Shank3B^+/- and Mecp2^STOP/y mice) | resting membrane potential [7] | rheobase, excitability [7] | resting membrane potential ([7]; listed as Isoguvacine) | rheobase, excitability ([7]; listed as Isoguvacine) | tactile PPI (control mice)
Cc1ncc2n1-c1ccc(Cl)cc1C(c1ccccc1F)=NC2 [Midazolam] | decreased response to an air puff stimulus alone | trend toward decreased startle amplitude | trend toward normalized responses |  |  |  |  |  |  |  |  |  | 
O=C(O)C1=CCNCC1 [isoguvacine] | decreased response to an air puff stimulus alone |  | trend toward normalized responses | enhanced the time spent in the center | decreases excitability; also recorded: increase in the amount of minimal current required to produce an action potential | reduces resting membrane potential; also recorded: decrease in resting membrane potential | significantly reduces tactile hypersensitivity | rheobase was no longer different than neurons cultured from control littermates | significant decrease in resting membrane potential | increase in rheobase | reduces resting membrane potential | decreases excitability | 
CCN(CC)CC(=O)Nc1c(C)cccc1C [lidocaine] |  |  |  |  |  |  |  |  |  |  |  |  | abolished
